According to patent US10266526B2, “Substituted 1,2,3-triazoles as SMYD inhibitors for treating cancer” (EPIZYME, INC., priority 2014, dated 2019):
Structures can show the parent of a compound that is named as a salt.

Columns and labels:
[1] = biological target: T1, SMYD3 (Homo sapiens (Human), UniProt Q9H7B4); experiment: SMYD3 biochemical assay (SMYD3 enzyme assay on MEKK2 protein substrate, 3H-SAM scintillation proximity assay); conditions: read-out: SMYD3 Biochem IC50
How it was run: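 Detection used scintillation proximity beads to capture ³H-methylated GST-MEKK2 after quench with 100 uM final cold SAM. The reaction was started by SAM/MEKK2 addition after a 30 min RT compound–enzyme preincubation. Enzyme was tag-free full-length human SMYD3 from E. coli, in buffer of 25 mM Tris-Cl pH 8.0, 1 mM TCEP, 0.005% BSG, 0.005% Tween 20.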

[2] = biological target: T1, SMYD3; experiment: SMYD3 cell assay (Trimethyl-MEKK2 In-Cell Western in 293T/17 cells transfected with MEKK2-flag and SMYD3); type: cell-based; conditions: Table 3A; average of n = 1 to n = 50; read-out: SMYD3 cell IC50
Excerpt: Trimethyl-MEKK2-in-Cell Western Assay
MEM/Glutamax medium, Optimem Reduced Serum medium, penicillin-streptomycin, 0.05% trypsin and 1×D-PBS were purchased from Life Technologies, Grand Island, N.Y., USA. PBS-10× was purchased from Ambion, Life Technologies, Grand Island, N.Y., USA. PBS with Tween 20 (PBST (10×)) was purchased from KPL, Gaithersburg, Md., USA. Tet System FBS-approved FBS US Source was purchased from Clontech, Mountain View, Calif., USA. Odyssey blocking buffer, 800CW goat anti-rabbit IgG (H+L) antibody, 680CW Goat anti-mouse IgG (H+L) and Licor Odyssey infrared scanner were purchased from Licor Biosciences, Lincoln, Nebr., USA. Tri-methyl-Lysine [A260]-MEKK2 antibody, MEKK2 and SMYD3 plasmids were made at Epizyme. Anti-flag monoclonal mouse antibody was purchased from Sigma, St. Louis, Mo., USA. Methanol was purchased from VWR, Franklin, Mass., USA. 10% Tween 20 was purchased from KPL, Inc., Gaithersburg, Md., USA. Fugene was purchased from Promega, Madison, Wis., USA. The Biotek ELx405 was purchased from BioTek, Winooski, Vt., USA. The multidrop combi was purchased from Thermo Scientific, Waltham, Mass., USA.
Cell Treatment, in Cell Western (ICW) for Detection of Trimethyl-Lysine-MEKK2 and MEKK2.
Plasmids were prepared for delivery to cells by first mixing 1350 μL Opti-MEM with Fugene (81 μL) in a sterile Eppendorf and incubated for five minutes at room temperature (RT). […] Entire volume of Opti-MEM/Fugene mixture was then added to a microfuge tube containing DNA plasmid, mixed and then incubated ×15 minutes at RT. […] Medium was then removed, and cells were washed once with PBS in the flask. Trypsin 0.05% (3 mL) was added and cells incubated for three minutes. Room temperature MEM+10% Tet system FBS was added and cells were mixed gently, and counted using the Vi-cell. Cells were seeded at 100,000 cells/mL in 50 μL MEM/10% Tet FBS/Pen/Strep to a 384 well black/clear poly-D-lysine coated plate containing test agent diluted in DMSO. The final top concentration of test compound was 40 μM. […] Plates were incubated ×30 minutes at RT in low-airflow area, followed by incubation at 37° C. under 5% CO2 for 24 hours. Medium was aspirated from all wells of assay plates prior to fixation and permeabilization with ice cold (−20° C.) methanol (90 μL/well) for ten minutes. Plates were rinsed with PBS three times on BioTek ELx405. PBS was removed with a final aspiration, and Odyssey blocking buffer (50 μL/well) was added to each well and incubated for one hour at RT. Primary antibody solution was prepared (anti-trimethyl-MEKK2 at 1:600 dilution plus mouse anti-flag antibody at 1:10,000 dilution in diluent (Odyssey Blocking buffer+0.1% Tween 20)) and 20 μL per well was dispensed using the Multidrop Combi. Assay plates were then sealed with foil, and incubated overnight at 4° C. Plates were washed five times with PBS-Tween (1×) on Biotek ELx405 and blotted on paper towel to remove excess reagent.
First, the ratio for each well was determined by:
Each plate included fourteen control wells of DMSO only treatment (Minimum Inhibition) as well as fourteen control wells for maximum inhibition (Background). The average of the ratio values for each control type was calculated and used to determine the percent inhibition for each test well in the plate. Reference compound was serially diluted two-fold in DMSO for a total of nine test concentrations, beginning at 40 μM. Percent inhibition was calculated (below).
Non-linear regression curves were generated to calculate the IC50 and dose-response relationship using triplicate wells per concentration of compound.

[3] = Table 3A, average of n = 1 to n = 50

T1 sequence (Q9H7B4 whole entry): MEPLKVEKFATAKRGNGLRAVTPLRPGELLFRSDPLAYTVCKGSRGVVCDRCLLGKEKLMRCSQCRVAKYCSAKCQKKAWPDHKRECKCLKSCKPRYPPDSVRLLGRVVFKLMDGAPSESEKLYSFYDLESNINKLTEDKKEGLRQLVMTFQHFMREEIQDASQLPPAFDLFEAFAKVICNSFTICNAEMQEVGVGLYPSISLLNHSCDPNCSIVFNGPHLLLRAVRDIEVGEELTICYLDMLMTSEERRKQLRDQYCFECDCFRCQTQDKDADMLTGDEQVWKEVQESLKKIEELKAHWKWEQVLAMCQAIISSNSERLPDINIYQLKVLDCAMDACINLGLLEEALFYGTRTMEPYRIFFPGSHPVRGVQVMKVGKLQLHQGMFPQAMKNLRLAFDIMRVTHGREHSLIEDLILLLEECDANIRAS

| Compound | IC50 [1, 3] | IC50 [2] | IC50 [1] |
| --- | --- | --- | --- |
| C[C@H]1C[C@@H](NC(=O)c2cc3c(cc2Cl)NC(=O)C3)CCN1S(=O)(=O)N1CCC(N)CC1 [compound 582, N-((2S,4S)-1-((4-aminopiperidin-1-yl)sulfonyl)-2-methylpiperidin-4-yl)-6-chloro-2-oxoindoline-5-carboxamide] | 0.98 nM | 814 nM |  |
| NC1CCN(S(=O)(=O)N2[C@@H]3CC[C@H]2C[C@@H](NC(=O)c2ccc4c(c2)NC(=O)CO4)C3)CC1 [compound 609, N-((1R,3r,5S)-8-(4-aminopiperidin-1-ylsulfonyl)-8-aza-bicyclo[3.2.1]octan-3-yl)-3-oxo-3,4-dihydro-2H-benzo[b][1,4]oxazine-6-carboxamide Hydrochloride] | 23.7 nM | 3700 nM |  |
| C[C@H]1C[C@H](NC(=O)c2nnc(C3CC3)s2)CCN1S(=O)(=O)N1CCC(N)CC1 [compound 631, N-((2S,4R)-1-((4-aminopiperidin-1-yl)sulfonyl)-2-methylpiperidin-4-yl)-5-cyclopropyl-1,3,4-thiadiazole-2-carboxamide] | 470 nM | 4900 nM |  |
| C[C@H]1C[C@@H](NC(=O)c2cnn(C3CC3)c2)CCN1S(=O)(=O)N1CCC(N)CC1 [compound 639, N-((2S,4S)-1-((4-aminopiperidin-1-yl)sulfonyl)-2-methylpiperidin-4-yl)-1-cyclopropyl-1H-pyrazole-4-carboxamide] | 1000 nM | ≥ 10000 nM |  |
| O=C1Cc2cc(C(=O)N[C@H]3C[C@H]4CC[C@@H](C3)N4S(=O)(=O)CC3CCN(CCCC(F)(F)F)CC3)c(Cl)cc2N1 [Cpd. No. 595, 6-chloro-2-oxo-N-((1S,3r,5R)-8-((1-(4,4,4-trifluorobutyl)piperidin-4-yl)methylsulfonyl)-8-aza-bicyclo[3.2.1]octan-3-yl)indoline-5-carboxamide] | 3.54 nM | 36.1 nM |  |
| CN1C(=O)Cc2cc(C(=O)N[C@H]3C[C@H]4CC[C@@H](C3)N4S(=O)(=O)CC3CCNCC3)c(Cl)cc21 [compound 617, 6-chloro-1-methyl-2-oxo-N-((1R,3r,5S)-8-((piperidin-4-ylmethyl)sulfonyl)-8-azabicyclo[3.2.1]octan-3-yl)indoline-5-carboxamide] | 52.3 nM | 2960 nM |  |
| N[C@H]1CC[C@H](C(=O)N2[C@@H]3CC[C@H]2C[C@@H](NC(=O)c2ccc4c(c2)CC(=O)N4)C3)CC1 [compound 638, N-((1R,3R,5S)-8-((1r,4R)-4-aminocyclohexane-1-carbonyl)-8-azabicyclo[3.2.1]octan-3-yl)-2-oxoindoline-5-carboxamide] | 962 nM | ≥ 10000 nM |  |
| CC(=O)Nc1ccc(S(=O)(=O)N2CC[C@H](NC(=O)c3ccc4c(c3)CC(=O)N4)C[C@@H]2C)cc1 [compound 632, N-((2S,4S)-1-(4-acetamidophenylsulfonyl)-2-methylpiperidin-4-yl)-2-oxoindoline-5-carboxamide] | 526 nM | ≥ 10000 nM |  |
| CN(C)C1CCN(S(=O)(=O)N2[C@@H]3CC[C@H]2C[C@@H](NC(=O)c2cc4c(cc2Cl)NC(=O)C4)C3)CC1 [compound 594, 6-chloro-N-((1R,3r,5S)-8-((4-(dimethylamino)piperidin-1-yl)sulfonyl)-8-azabicyclo[3.2.1]octan-3-yl)-2-oxoindoline-5-carboxamide] |  | 301 nM | 3.46 nM |
| O=C1Cc2cc(C(=O)N[C@H]3C[C@H]4CC[C@@H](C3)N4S(=O)(=O)CC3CCN(CCCO)CC3)ccc2N1 [compound 581, N-((1R,3r,5S)-8-(((1-(3-hydroxypropyl)piperidin-4-yl)methyl)sulfonyl)-8-azabicyclo[3.2.1]octan-3-yl)-2-oxoindoline-5-carboxamide] | 0.95 nM | 1670 nM |  |
| N[C@H]1CC[C@H](S(=O)(=O)N2[C@@H]3CC[C@H]2C[C@@H](NC(=O)c2ccc4c(c2)CC(=O)N4)C3)CC1 [compound 575, N-((1R,3R,5S)-8-(((1r,4R)-4-aminocyclohexyl)sulfonyl)-8-azabicyclo[3.2.1]octan-3-yl)-2-oxoindoline-5-carboxamide] |  | 2170 nM | 0.44 nM |
| CC(=O)Nc1ccc(S(=O)(=O)N2CCC(NC(=O)c3cc4c(cc3Cl)NC(=O)C4)CC2)cc1 [compound 641, N-(1-((4-acetamidophenyl)sulfonyl)piperidin-4-yl)-6-chloro-2-oxoindoline-5-carboxamide] | 5930 nM | ≥ 10000 nM |  |
| NC1CCN(S(=O)(=O)N2[C@@H]3CC[C@H]2C[C@@H](NC(=O)c2cc4c(cc2F)NC(=O)C4)C3)CC1 [compound 576, N-((1R,3r,5S)-8-((4-aminopiperidin-1-yl)sulfonyl)-8-azabicyclo[3.2.1]octan-3-yl)-6-fluoro-2-oxoindoline-5-carboxamide] | 0.49 nM | 525 nM |  |
| NC1CCN(S(=O)(=O)N2[C@@H]3CC[C@H]2C[C@@H](NC(=O)c2cc(C4CC4)no2)C3)CC1 [compound 644, N-((1R,3r,5S)-8-((4-aminopiperidin-1-yl)sulfonyl)-8-azabicyclo[3.2.1]octan-3-yl)-3-cyclopropylisoxazole-5-carboxamide] | 18.5 nM | 257 nM |  |
| CCc1cccc(C(=O)N[C@H]2C[C@H]3CC[C@@H](C2)N3S(=O)(=O)CC2CCNCC2)c1 [compound 635, 3-ethyl-N-((1R,3r,5S)-8-((piperidin-4-ylmethyl)sulfonyl)-8-azabicyclo[3.2.1]octan-3-yl)benzamide] | 620 nM | ≥ 10000 nM |  |
| CN1CCC(CS(=O)(=O)N2[C@@H]3CC[C@H]2C[C@@H](NC(=O)c2ccc4c(c2)OC(F)(F)O4)C3)CC1 [compound 630, 2,2-difluoro-N-((1R,3r,5S)-8-(((1-methylpiperidin-4-yl)methyl)sulfonyl)-8-azabicyclo[3.2.1]octan-3-yl)benzo[d][1,3]dioxole-5-carboxamide] | 361 nM | 6550 nM |  |
| NC1CCN(S(=O)(=O)N2[C@@H]3CC[C@H]2C[C@@H](NC(=O)c2nnc(C4CC4)s2)C3)CC1 [compound 618, N-((1R,3r,5S)-8-((4-aminopiperidin-1-yl)sulfonyl)-8-azabicyclo[3.2.1]octan-3-yl)-5-cyclopropyl-1,3,4-thiadiazole-2-carboxamide] | 55.8 nM | 348 nM |  |
| O=C1Cc2cc(C(=O)N[C@H]3C[C@H]4CC[C@@H](C3)N4S(=O)(=O)CC3CCCNC3)ccc2N1 (stereo partly drawn) [compound 590, 2-oxo-N-((1R,3r,5S)-8-((piperidin-3-ylmethyl)sulfonyl)-8-azabicyclo[3.2.1]octan-3-yl)indoline-5-carboxamide] |  | 768 nM | 2.14 nM |
| O=C1Cc2cc(C(=O)N[C@H]3C[C@H]4CC[C@@H](C3)N4S(=O)(=O)CC3CCNCC3)ccc2N1 [compound 597, 2-oxo-N-((1R,3r,5S)-8-((piperidin-4-ylmethyl)sulfonyl)-8-azabicyclo[3.2.1]octan-3-yl)indoline-5-carboxamide] | 3.98 nM | 3440 nM |  |
| O=C1Cc2cc(C(=O)N[C@H]3C[C@H]4CC[C@@H](C3)N4S(=O)(=O)CC3CCNCC3)c(Cl)cc2N1 [compound 596, 6-chloro-2-oxo-N-((1R,3r,5S)-8-((piperidin-4-ylmethyl)sulfonyl)-8-azabicyclo[3.2.1]octan-3-yl)indoline-5-carboxamide] | 3.6 nM | 2660 nM |  |
